Laboratory results: US20200261418A1, “HDAC INHIBITOR IN COMBINATION WITH IMMUNE CHECKPOINT MODULATOR FOR CANCER THERAPY” (4SC AG, priority 2017, published 2020)
Where two headings read alike, the source gives them in different places.

Key:
[1] = Handling of 4SC-202 tosylate calibration solutions (light stability); assay type: physicochemical; conditions: solutions in dimethylsulfoxide and dimethylsulfoxide/acetonitrile
Protocol: For the preparation of calibration samples, 4SC-202 tosylate salt was dissolved in dimethylsulfoxide to a concentration of 1.00 mg/mL free base. For the preparation of QC samples, a second solution with a concentration of 1.00 mg/mL free base was used. Working solutions were prepared by serial dilutions in a mixture of dimethylsulfoxide/acetonitrile (50/50, v/v) to concentrations 50 times higher than the corresponding concentrations in matrix. The concentrations were calculated under consideration of purity and salt factor where applicable. All concentrations are expressed as those of the free base. […] The concentrations of the calibration are (ng/mL): 1.00, 2.00, 5.00, 20.00, 100, 500, 750, 1000. The concentrations of the QC are (ng/mL): 13.00, 20.00, 750 For preparation of the CAL and QC, the matrix was fortified with the working solutions using a ratio of 98/2 (v/v). For the preparation of the internal standard solution, 4SC-201-d6 mesylate salt was dissolved in dimethylsulfoxide to a concentration of 1.00 mg/mL of the free base. Further dilutions to a final concentration of 100 ng/mL were done in acetonitrile. The concentration was calculated under consideration of purity and salt factor.

[2] = system: CT26 cells; test: Preclinical murine in vivo tumor model, CT26; design: species or system female Balb/c mice; conditions: CT26 model (FIG. 2); anti-PD-L1 10 mg/kg IP; 4SC-202 at 20 mg/kg PO alone or combined
Protocol: (§1) In vivo murine tumor models were conducted with a combination of 4SC-202 and murine anti-PD-1 and anti-PD-L1 antibodies, respectively. 1×10^6 CT26 cells or 30-50 mg C38 tumor fragments (both […] colon carcinoma cell lines) were subcutaneous implantation into the right flank of female C57Bl/6 (C38 tumor fragments) or Balb/c (CT26 cells) mice, respectively, at day 0 of the experiment.
Protocol CT26: At D7, when tumors reached a mean volume of 73±21 mm^3, 80 mice out of 104, were randomized according to their individual tumor volume into 4 groups of 20 mice each. […]
(§2) Monitoring of mice body weights and tumor volume twice a week. […] Tumor width and length were measured using a digital caliper twice a week and estimated tumor volumes were calculated from measured tumor length and width using the formula Estimated tumor volume=width^2×length/2. […]

[3] = system: heavily pre-treated patients with different types of blood cancer; conditions: cited from earlier work
[4] = system: C38 tumor fragments; test: Preclinical murine in vivo tumor model, C38; design: species or system female C57Bl/6 mice; conditions: C38 model (FIG. 1); anti-PD1 10 mg/kg IP; 4SC-202 at 20 mg/kg PO alone or combined
Protocol: as §1
Protocol C38: At D10, when tumors reached a mean volume of 142±27 mm^3, 160 mice out of 224, were randomized according to their individual tumor volume into 8 groups of 20 mice each. […]
as §2

[5] = Food effect dog study, plasma pharmacokinetics; assay type: in vivo, dogs (male Beagle); conditions: approx. 60 mg/kg oral tablets; for AUC: male, Beagle, dog, plasma, po, 60 mg/kg, three dogs, read-out: AUC geometric mean
Protocol: A pharmacokinetic profile for 4SC-202 was determined in an animal study comprising three dogs (male Beagle). To allow for better comparison of the fasted/fed values and eliminate inter-subject variability, each dog first received a first dose of 4SC-202 in the fasted state, and after a wash-out phase of one week, received another dose of 4SC-202 in the fed state. After each respective dose, the plasma pK of 4SC-202 was determined
Before the first dosing, the dogs were fasted overnight and food was returned after the 4 h post-dose blood sampling collections. On each dosing day, the dogs received a single intramuscular injection of freshly prepared Pentagastrin (6 μg/kg and 0.05 mL/kg) 30-33 min prior to oral treatment with approx. 60 mg/kg 4SC-202 (tablet as detailed herein below); for fed animals, these steps were omitted and the dogs received their usual meal approx. 30 min prior to dosing. The number of tablets (4SC-202 tosylate corresponding to 100 mg 4SC-202 free base per tablet) was rounded to the nearest whole tablet based on dose and animal pre-dose body weight. Immediately after dosing the animals received 20 mL of water after oral gavage or were offered 20 mL of water to assist swallowing of the tablets.
Blood samples (1 ml per sample in K2EDTA as anticoagulant) were collected by venipuncture of a peripheral vein and placed on wet ice immediately after collection until centrifugation as 2000*g for 10 min at 2-8° C. to isolate plasma. […]
The concentration of 4SC-202 (free base) in plasma samples was determined by first precipitating the samples with three volume equivalents of acetonitrile containing the internal standard. […]
For the preparation of calibration samples, 4SC-202 tosylate salt was dissolved in dimethylsulfoxide to a concentration of 1.00 mg/mL free base. […] The concentrations were calculated under consideration of purity and salt factor where applicable. All concentrations are expressed as those of the free base. […] The concentration was calculated under consideration of purity and salt factor. […]

Row | light stability of solutions [1] | AUC increase of the fed state over the fasted state ([5]; dogs) | AUC ([5]; fasted) | AUC ([5]; fed) | Compound | anti-tumor activity compared to mice treated with vehicle [2] | tolerability (adverse events) ([3]; 24 heavily pre-treated patients, few and/or manageable adverse events) | disease control, share of patients ([3]; 24 patients) | long-term stabilization, share of patients ([3]; 24 patients) | complete remission, duration ([3]; one complete remission among 24 patients) | partial responder, duration ([3]; one partial responder among 24 patients) | anti-tumor activity compared to mice treated with vehicle [4]
1 | light instability | – | – | – | Cc1ccc(S(=O)(=O)O)cc1.Cn1cc(-c2ccc(S(=O)(=O)n3ccc(/C=C/C(=O)Nc4ccccc4N)c3)cc2)cn1 [4SC-202 tosylate salt] | – | – | – | – | – | – | –
2 | – | about 3.5 fold | 3980 ng·h/mL | 13900 ng·h/mL | Cn1cc(-c2ccc(S(=O)(=O)n3ccc(/C=C/C(=O)Nc4ccccc4N)c3)cc2)cn1 [Compound 4SC-202, (E)-N-(2-aminophenyl)-3-(1-((4-(1-methyl-1H-pyrazol-4-yl)phenyl)sulfonyl)-1H-pyrrol-3-yl)acrylamide] | increase of the antitumor activity | well tolerated | 83% | 50% | 28 months | 8 months | increase of the antitumor activity
